# Source: paper PMC4749975, “Selective binding modes and allosteric inhibitory effects of lupane triterpenes on protein tyrosine phosphatase 1B” (Scientific Reports, 2016)
# “Also recorded” adds a separate entry of the source. Like-named read-outs stand apart in the source and are kept apart here.
# Key:
# [1] = molecular target: T1, recombinant human TCPTP protein (Homo sapiens, UniProt P17706); test: Inhibiting TCPTP by pNPP phosphatase assay; type: biochemical; conditions: for Fold changes (TCPTP IC50 / PTP1B IC50): PTP1B IC50 from literature, TCPTP IC50 measured
# T1 construct: purchased Abcam Inc (Cambridge, MA) ab42575
# T1 sequence (P17706 1-415): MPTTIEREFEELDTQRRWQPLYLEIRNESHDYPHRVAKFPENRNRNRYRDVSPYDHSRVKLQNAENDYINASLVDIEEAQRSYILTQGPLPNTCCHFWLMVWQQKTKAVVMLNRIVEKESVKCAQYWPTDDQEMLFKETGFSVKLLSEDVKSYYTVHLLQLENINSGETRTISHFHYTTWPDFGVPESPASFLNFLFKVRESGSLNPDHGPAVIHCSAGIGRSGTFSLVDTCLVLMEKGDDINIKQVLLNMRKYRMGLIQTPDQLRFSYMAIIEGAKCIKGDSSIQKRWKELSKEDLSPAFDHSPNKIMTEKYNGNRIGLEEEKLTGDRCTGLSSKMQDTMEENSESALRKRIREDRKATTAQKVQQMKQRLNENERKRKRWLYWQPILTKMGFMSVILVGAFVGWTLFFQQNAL
# [2] = molecular target: T2, PTP1B (Homo sapiens, UniProt P18031); test: Estimation of Ki and binding free energy from experimental IC50 (IC50-to-Ki converter)
# T2 sequence (P18031 1-435): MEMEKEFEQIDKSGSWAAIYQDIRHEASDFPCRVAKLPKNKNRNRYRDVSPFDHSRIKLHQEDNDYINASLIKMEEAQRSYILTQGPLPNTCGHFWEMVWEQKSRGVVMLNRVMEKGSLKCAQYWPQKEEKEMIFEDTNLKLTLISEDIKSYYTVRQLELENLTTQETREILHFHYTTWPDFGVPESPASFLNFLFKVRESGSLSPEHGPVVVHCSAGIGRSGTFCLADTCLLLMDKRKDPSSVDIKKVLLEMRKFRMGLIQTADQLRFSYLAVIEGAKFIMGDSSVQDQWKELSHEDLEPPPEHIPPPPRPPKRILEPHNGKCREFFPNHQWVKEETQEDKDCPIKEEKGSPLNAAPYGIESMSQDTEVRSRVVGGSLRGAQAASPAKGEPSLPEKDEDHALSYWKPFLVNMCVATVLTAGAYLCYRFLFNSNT
# [3] = molecular target: T2, PTP1B; test: PTP1B inhibition kinetics assay (Lineweaver-Burk, pNPP); type: biochemical; conditions: Lineweaver-Burk plot; for mode of inhibition of PTP1B: 6 pNPP and 4 compound concentrations
# Method: The Lupeol group was used as a control group. The absorbance at 405 nm was detected by a spectraMAX 384 microplate spectrophotometer twice every minute for a total of 15 min. Michaelis-Menten constant (Km) and maximum velocity (Vmax) of PTP1B were determined via Lineweaver-Burk plots using the GraphPad Prism 5 program (GraphPad Software Inc, La Jolla, CA).
# [4] = molecular target: T2, PTP1B; conditions: cited from earlier work; for IC50: read-out: IC50 PTP1B
# [5] = molecular target: T3, PTP1B (Mus musculus, UniProt P35821); test: Immunoprecipitation assay of PTP1B activity in TNFα-treated mHypoE-46 neurons; type: cell-based
# T3 construct: endogenous in cells; host or cells: mHypoE-46 mouse hypothalamic neurons
# T3 sequence (P35821 1-432): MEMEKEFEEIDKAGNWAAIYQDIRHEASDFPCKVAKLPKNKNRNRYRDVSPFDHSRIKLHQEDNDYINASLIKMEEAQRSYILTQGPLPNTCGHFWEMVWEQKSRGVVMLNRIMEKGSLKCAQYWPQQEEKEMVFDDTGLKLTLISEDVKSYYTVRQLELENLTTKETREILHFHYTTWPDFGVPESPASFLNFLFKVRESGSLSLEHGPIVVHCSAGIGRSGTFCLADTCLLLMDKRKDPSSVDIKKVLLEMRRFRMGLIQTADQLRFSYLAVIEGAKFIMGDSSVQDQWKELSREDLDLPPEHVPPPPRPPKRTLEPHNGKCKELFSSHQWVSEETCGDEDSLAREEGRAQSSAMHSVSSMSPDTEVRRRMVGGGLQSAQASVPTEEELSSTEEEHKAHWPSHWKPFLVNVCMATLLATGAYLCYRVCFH
# Method: (§1) Mouse hypothalamic cell line (mHypoE-46) neurons were grown in monolayer in Dulbecco’s modified Eagle medium (DMEM) (Sigma D5796, Castle Hill, NSW) with 10% fetal bovine serum (FBS) (SAFC Biosciences Inc, Lenexa, KS) and 1% penicillin/streptomycin. They were maintained at 37 °C with 5% CO2. Prior to treatment, the cell culture medium was replaced with DMEM containing 1% penicillin/streptomycin for 4 h. Murine TNFα was obtained from Sigma-Aldrich (Castle Hill, NSW). Lupeol and betulinic acid were dissolved in Dimethyl sulfoxide (DMSO), then diluted in sterile water, and mixed with serum free cell culture medium. The DMSO concentration was controlled below 0.15%.
# Based on the instructions of the Pierce Classic IP Kit (#26146, Thermo Fisher Scientific Inc, IL) with minor modifications, PTP1B was immunoprecipitated using the 25 μg PTP1B antibody (sc-1718, Santa Cruz Biotechnology Inc, Dallas, TX) for 12 h at 4 °C. Immune complexes were isolated by adding the protein G-agarose, washed three times in the phosphatase assay buffer from the EnzoLyte Colorimetric pNPP Protein Phosphatase Assay kit (Anaspec, San Jose, CA), and resuspended in the same buffer. Samples were analysed for the phosphatase activity using the same pNPP assay kit mentioned above.
# [6] = system: PTP1B; test: Western blot of PTP1B protein expression in mHypoE-46 neurons; type: cell-based, Mouse; conditions: for PTP1B protein expression: 10 h after TNFα 8 h
# Method: as §1
# The method was described in our previous study with modifications, mHypoE-46 neurons were washed with ice-cold PBS and lysed in NP-40 lysis buffer (Invitrogen Australia Pty Ltd, Mulgrave, VIC) containing a protease inhibitor cocktail, beta-glycerophosphate and phenylmethanesulfonyl fluoride (PMSF) (Sigma, Castle Hill, NSW). Cell lysates were centrifuged at 14000 rpm for 10 min at 4 °C. The supernatants were collected and protein concentrations were determined using the DC assay (Bio-Rad Laboratories, Gladesville, NSW) according to the manufacturer’s instructions. Equal amounts of protein (10 μg) were separated on 4–12% Bis-Tris gels (Bio-Rad Laboratories, Gladesville, NSW,) using SDS-PAGE. Following electrophoresis (120 V for 2 h), the proteins were transferred to polyvinylidene difluoride membranes (100 V for 1 h). Membranes were blocked in 5% bovine serum albumin (BSA), followed by incubation with the primary antibodies PTP1B (sc-1718, 1:500, Santa Cruz Biotechnology Inc, Dallas, TX) in 1% BSA overnight at 4 °C. […] The bands corresponding to the proteins of interest were scanned and densitometrically analysed using the automatic imaging analysis system Quantity One (Bio-Rad Laboratories, Gladesville, NSW). All quantitative analyses were normalised to β-actin.
# [7] = pNPP assay, 25 °C, read-out: IC50 TCPTP
"IC50 [1, 7]",Compound,IC50 [1],Fold changes (TCPTP IC50 / PTP1B IC50) [1],Ki [2],Km value of PTP1B in presence of compound [3],Vmax value of PTP1B in presence of compound [3],mode of inhibition of PTP1B [3],IC50 [4],mode of inhibition of PTP1B (literature) [4],further results
,"C=C(C)[C@@H]1CC[C@]2(CO)CC[C@]3(C)[C@H](CC[C@@H]4[C@@]5(C)CC[C@H](O)C(C)(C)[C@@H]5CC[C@]43C)[C@@H]12 [Betulin, betulin]",119 µM,7 fold,15.3 µM,altered Km value,decreased Vmax value,mixed-type inhibition,15.3 µM,,
124 µM,"C=C(C)[C@@H]1CC[C@]2(C(=O)O)CC[C@]3(C)[C@H](CC[C@@H]4[C@@]5(C)CC[C@H](O)C(C)(C)[C@@H]5CC[C@]43C)[C@@H]12 [Betulinic acid, betulinic acid]",,81 fold,,constant Km value,decreased Vmax value,non-competitive inhibitor,,,"inhibition of PTP1B enzyme activity ([5]; betulinic acid 7.5 μM, 10 h after TNFα 8 h): significantly inhibited; inhibition at 7.5 µM ([5]; betulinic acid 7.5 μM, 10 h after TNFα 8 h, read-out: inhibition of PTP1B enzyme activity): 35%; Ki ([2]; IC50-to-Ki converter, [E] 0.01, [S] 20000 µM, read-out: Constant of inhibition [Ki]): 1.5 µM; PTP1B protein expression ([6]; betulinic acid 7.5 μM): slightly decreased; also recorded: do not significantly decrease"
62.7 µM,"CCc1oc2cc(S(=O)(=O)Nc3ccc(S(=O)(=O)Nc4nccs4)cc3)ccc2c1C(=O)c1cc(Br)c(O)c(Br)c1 [Compound 3, reference compound]",,,,,,,,,
,"C=C(C)[C@@H]1CC[C@]2(C)CC[C@]3(C)[C@H](CC[C@@H]4[C@@]5(C)CC[C@H](O)C(C)(C)[C@@H]5CC[C@]43C)[C@@H]12 [Lupeol, lupeol]",126 µM,22 fold,5.6 µM,,,,5.6 µM,non-competitive inhibitor,"inhibition of PTP1B enzyme activity ([5]; lupeol 28 μM, 10 h after TNFα 8 h): significantly inhibited; inhibition at 28 µM ([5]; lupeol 28 μM, 10 h after TNFα 8 h, read-out: inhibition of PTP1B enzyme activity): 35%; PTP1B protein expression ([6]; lupeol 28 μM): slightly decreased; also recorded: do not significantly decrease"
,TNFα,,,,,,,,,"increase of PTP1B activity ([5]; TNFα 20 ng/ml, 8 h): 1.5 fold; increase of PTP1B expression ([6]; TNFα 20 ng/ml, 8 h): 1.75 fold"

Compound,"IC50 [1, 7]",IC50 [1],Fold changes (TCPTP IC50 / PTP1B IC50) [1],Ki [2],Km value of PTP1B in presence of compound [3],Vmax value of PTP1B in presence of compound [3],mode of inhibition of PTP1B [3],IC50 [4],mode of inhibition of PTP1B (literature) [4],further results
"C=C(C)[C@@H]1CC[C@]2(C)CC[C@]3(C)[C@H](CC[C@@H]4[C@@]5(C)CCC(=O)C(C)(C)[C@@H]5CC[C@]43C)[C@@H]12 [Lupenone, lupenone]",91.5 µM,,6 fold,,,,,13.7 µM,non-competitive inhibitors,
